# In patent US9084766B2, “Compounds and compositions for targeting cancer stem cells” (Boston Biomedical, Inc., priority 2010, dated 2015):
# Several values for one entry are separate records, joined by “and”; a condition that tells them apart may be missing. Equal values may be shown once. Read-outs that look alike come from different tables or passages of the source.
# What was measured:
# [1] = Phase I clinical trial: plasma pharmacokinetics; format: in vivo, human; set-up: AUC0-24 hrs: concentration or dose not given beside the values; settings: for AUC0-24 hrs: in µM·h
# Procedure: A favorable PK profile with oral bid dosing was also observed. The plasma concentration reached several folds over efficacious concentration (in vitro IC50).
# In yet another suitable dosing regimen, Compound 1 is administered with food which delays the Tmax (Table 13).
# [2] = Toxicity / body weight in tumor-bearing mice; format: in vivo
# Procedure: All regimens were administered daily (qd). Body weights were evaluated periodically during treatment. Each point represents the mean±SEM of eight tumors. […] All regimens were administered daily (qd). Body weights were evaluated periodically during treatment. Each point represents the mean±SEM of eight tumors.
# Daily examinations into the health status of each animal were also conducted. Body weights were checked every three days. Food and water was supplied daily according to the animal husbandry procedures of the facility. Treatment producing>20% lethality and or >20% net body weight loss were considered toxic. Results are expressed as mean tumor volume (mm^3)±SE. P Values<0.05 are considered to be statistically relevant.
# [3] = Pharmacokinetics in mice of particle size formulations; format: in vivo; settings: particle size 125-150 micron versus 2 and 20 micron, 100 mg/kg oral, 20% Gelucire 44/14 and 1% Tween 80
# Procedure: In an experiment, micronized Compound 1 prepared in step 6 of Example 2 with a mean particle size of 2 micron, 20 microns, 150 microns were formulated as suspensions in 20% Gelucire 44/14 and 1% Tween 80 and administered orally to mice at 100 mg/kg. Each time point represents the average of 3 mice (FIG. 16).
smiles,measurement,setting,value
"CC(=O)c1cc2c(o1)C(=O)c1ccccc1C2=O [Compound 1, 2-acetyl-4H,9H-naphtho[2,3-b]furan-4,9-dione]",clearance from blood,[1]; 20 mg QD (FIG. 21),rapidly cleared from the blood
same,time plasma concentration sustained at at least 1.5 μM,[1]; 320 mg/day dose level,over 8 hours
same,plasma concentration sustained,"[1]; 320 mg/day dose level, for over 8 hours",at least 1.5 μM
same,Cmax,[1]; Fasting,2550 nM
same,AUC0-24 hrs,[1]; Fasting,20.72
same,pharmacokinetics (linearity),[1]; doses through about 1000 mg/day,apparent linear pharmacokinetics
same,AUC(0-t),"[1]; human, plasma, oral, 80 mg, total daily dose 80 mg, BID dosing, read-out: AUC0-24",7.95 µM·h
same,AUC(0-t),"[1]; human, plasma, oral, 160 mg, total daily dose 160 mg, BID dosing, read-out: AUC0-24",9.52 µM·h
same,AUC(0-t),"[1]; human, plasma, oral, 320 mg, total daily dose 320 mg, BID dosing, read-out: AUC0-24",29.8 µM·h
same,AUC(0-t),"[1]; human, plasma, oral, 400 mg, total daily dose 400 mg, BID dosing, read-out: AUC0-24",53.6 µM·h
same,AUC(0-t),"[1]; human, plasma, oral, 600 mg, total daily dose 600 mg, BID dosing, read-out: AUC0-24",27.3 µM·h
same,AUC(0-t),"[1]; human, plasma, oral, 800 mg, total daily dose 800 mg, BID dosing, read-out: AUC0-24",26.4 µM·h
same,AUC(0-t),"[1]; human, plasma, oral, 1000 mg, total daily dose 1000 mg, BID dosing, read-out: AUC0-24",42.6 µM·h
same,AUC(0-t),"[1]; human, plasma, oral, 1400 mg, total daily dose 1400 mg, BID dosing, read-out: AUC0-24",28.4 µM·h
same,AUC(0-t),"[1]; human, plasma, oral, 2000 mg, total daily dose 2000 mg, BID dosing, read-out: AUC0-24",39.1 µM·h
same,Cmax,"[1]; human, plasma, oral, Fasting",2010 nM
same,AUC(0-t),"[1]; human, plasma, oral, Fasting, read-out: AUC0-24 hrs",20.1 µM·h
same,Tmax,"[1]; human, plasma, oral, patient 20, Fasting",2 h
same,Tmax,"[1]; human, plasma, oral, patient 20, With Food",8 h
same,Tmax,"[1]; human, plasma, oral, patient 20, With Milk",2 h
same,Tmax,"[1]; human, plasma, oral, patient 21, Fasting",6 h
same,Tmax,"[1]; human, plasma, oral, patient 21, With Food",6 h
same,Tmax,"[1]; human, plasma, oral, patient 21, With Milk",6 h
same,Tmax,"[1]; human, plasma, oral, patient 22, Fasting",8 h
same,Tmax,"[1]; human, plasma, oral, patient 22, With Food",10 h
same,Tmax,"[1]; human, plasma, oral, patient 22, With Milk",8 h
same,Tmax,"[1]; human, plasma, oral, patient 24, With Food",10 h
same,Tmax,"[1]; human, plasma, oral, patient 24, With Milk",6.3 h
same,Tmax,"[1]; human, plasma, oral, patient 27, With Food",6 h
same,Tmax,"[1]; human, plasma, oral, patient 27, With Milk",0.5 h
same,Tmax,"[1]; human, plasma, oral, patient 28, With Food",10 h
same,Tmax,"[1]; human, plasma, oral, patient 28, With Milk",6 h
same,Cmax,"[1]; human, plasma, oral, with Milk",3050 nM
same,AUC(0-t),"[1]; human, plasma, oral, with Milk, read-out: AUC0-24 hrs",31.4 µM·h
same,drug accumulation,"[1]; repeated daily dosing every 28 days, doses through about 1000 mg/day",no evidence of drug accumulation
same,Cmax,[1]; with Milk,2890 nM
same,AUC0-24 hrs Fold Change,[1]; with Milk versus Fasting,1.56 and 1.55
same,Cmax Fold Change,[1]; with Milk versus Fasting,1.52 and 1.13
same,AUC0-24 hrs,[1]; with Milk,32.16
same,mice died during the treatment,"[2]; about 90% pure, FaDu experiment (upper panel)",4 mice
same,mice died during the treatment,"[2]; about 90% pure, MDA-231 experiment (lower panel)",3 mice
same,toxicity,"[2]; about 90% pure, in GELUCIRE, po qd, FaDu or MDA-231 bearing mice (FIG. 13)",Significant toxicity
same,toxicity,"[2]; composition of particle size less than 5 micron, mice",no observed toxicity
same,tolerability / toxicity,"[2]; higher purity (about 95% or greater), po qd, FaDu or MDA-231 bearing mice (FIG. 14)",well-tolerated and showed no signs of toxicity
same,plasma exposure,[3],lower level of exposure
